Source: patent publication US7452894B2, “Purine derivatives as purinergic receptor antagonists” (Vernalis Research Limited, priority 2001, dated 2008)

Row | Structure (SMILES) | melting point
1 | CN(C)C(=O)c1ccc(Cn2cnc3c(-c4ccco4)nc(N)nc32)cc1 [Example 233, 4-(2-Amino-6-(2-furyl)-9H-purine-9-ylmethyl)-N,N-dimethylbenzamide] | 223.1 to 226.9 °C
2 | Cc1ccc(-c2nc(N)nc3c2ncn3C(=O)NCc2ccccc2)o1 [Example 204, 2-Amino-N-benzyl-6-(5-methyl-2-furyl)-9H-purine-9-carboxamide] | 160 °C (dec.)
3 | Nc1nc(-c2ccco2)c2ncn(Cc3ccc(C(=O)NCc4ccccc4)cc3)c2n1 [Example 227, 4-(2-Amino-6-(2-furyl)-9H-purine-9-ylmethyl)-N-benzylbenzamide] | 170 to 171.9 °C
4 | Nc1nc(-c2ccco2)c2ncn(Cc3cccc(F)c3)c2n1 [Example 203, 9-(3-Fluorobenzyl)-6-(2-furyl)-9H-purine-2-amine] | 218.2 to 218.5 °C
5 | COc1ccccc1CNC(=O)Cn1cnc2c(-c3ccco3)nc(N)nc21 [Example 236, 2-Amino-6-(2-furyl)-N-(2-methoxybenzyl)-9H-purine-9-acetamide] | 279.9 to 281 °C
6 | Nc1nc(-c2ccco2)c2ncn(CC(=O)NCc3ccccc3)c2n1 [Example 86, 2-Amino-N-benzyl-6-(2-furyl)-9H-purine-9-acetamide] | 287.2 to 287.8 °C
7 | Nc1nc(-c2ccco2)c2ncn(CCN3C(=O)c4ccccc4C3=O)c2n1 [Example 174, 6-(2-Furyl)-9-(2-phthalimidoethyl)-9H-purine-2-amine] | 160 °C (dec.)
8 | Cn1cccc1-c1nc(N)nc2[nH]cnc12 [Example 133, 6-(1-Methyl-1H-pyrrol-2-yl)-1H-purine-2-amine] | > 240 °C (dec.)
9 | Cc1ccc(S(=O)(=O)n2cnc3c(-c4ccco4)nc(N(C)C)nc32)cc1 [Example 56, N,N-Dimethyl-6-(2-furyl)-9-(4-methylphenylsulphonyl)-9H-purine-2-amine] | 212.6 to 213 °C
10 | Nc1nc(-c2cncs2)c2ncn(Cc3ccccc3F)c2n1 [Example 267, 9-(2-Fluorobenzyl)-6-(thiazol-5-yl)-9H-purine-2-amine] | 190.5 to 190.6 °C
11 | O=C(NC1CCCCC1)n1cnc2c(-c3ccco3)nc(Cl)nc21 [Example 31, 2-Chloro-N-cyclohexyl-6-(2-furyl)-9H-purine-9-carboxamide] | 177.4 to 177.8 °C
12 | Cn1cncc1-c1nc(N)nc2[nH]cnc12 [Example 209, 6-(1-Methyl-1H-imidazol-5-yl)-1H-purine-2-amine] | 300 °C (dec.)
13 | CN(Cc1ccccc1)C(=O)Cn1cnc2c(-c3ccco3)nc(N)nc21 [Example 145, 2-Amino-N-benzyl-6-(2-furyl)-N-methyl-9H-purine-9-acetamide] | 224 to 224.1 °C
14 | C=CCNc1nc(-c2ccco2)c2ncn(COCC[Si](C)(C)C)c2n1 | 185.5 to 186 °C
15 | CCOC(=O)Cn1cnc2c(-c3ccco3)nc(-c3ccco3)nc21 [Example 72, Ethyl 2,6-bis(2-furyl)-9H-purine-9-acetate] | 314 °C
16 | Cc1ccc(Cn2cnc3c(-c4ccco4)nc(C#N)nc32)cc1 [Example 173, 6-(2-Furyl)-9-(4-methylbenzyl)-9H-purine-2-carbonitrile] | 196.5 °C (dec.)
17 | Nc1nc(-c2ccco2)c2ncn(CC(=O)NCc3ccccn3)c2n1 [Example 119, 2-Amino-6-(2-furyl)-N-(2-pyridylmethyl)-9H-purine-9-acetamide] | 238.3 to 238.4 °C

Row | Structure (SMILES) | melting point
18 | Nc1nc(-c2ccco2)c2ncn(CC(=O)NCc3ccc(Cl)cc3)c2n1 [Example 144, 2-Amino-N-(4-chlorobenzyl)-6-(2-furyl)-9H-purine-9-acetamide] | 277 °C (dec.)
19 | CNc1nc(-c2ccco2)c2ncn(COCC[Si](C)(C)C)c2n1 | 160.1 to 160.8 °C
20 | Cc1noc(C)c1S(=O)(=O)Nc1ccccc1Cn1cnc2c(-c3ccco3)nc(N)nc21 [Example 239, 6-(2-Furyl)-9-(2-(3,5-dimethylisoxazol-4-ylsulphonylamino)benzyl)-9H-purine-2-amine] | 251.4 to 253.1 °C
21 | CNc1nc(-c2ccco2)c2nc[nH]c2n1 [Example 18, 6-(2-Furyl)-N-methyl-1H-purine-2-amine] | 235 to 236 °C (dec.)
22 | Cc1nc(-c2ccco2)c2nc[nH]c2n1 [Example 153, 6.(2-Furyl)-2-methyl-1H-purine] | 342 °C (dec.)
23 | Cc1ccc(-c2nc(N)nc3[nH]cnc23)o1 [Example 195, 6-(5-Methyl-2-furyl)-1H-purine-2-amine] | > 190 °C (dec.)
24 | C[Si](C)(C)CCOCn1cnc2c(-c3ccco3)nc(Cl)nc21 | 105.8 to 106.2 °C
25 | C=CCNc1nc(-c2ccco2)c2nc[nH]c2n1 [Example 17, N-Allyl-6-(2-furyl)-1H-purine-2-amine] | 158.7 to 160.1 °C
26 | CN(C)c1nc(-c2ccco2)c2ncn(COCC[Si](C)(C)C)c2n1 | 81.5 to 82.2 °C
27 | OC[C@H]1CCCN1c1nc(-c2ccco2)c2nc[nH]c2n1 [Example 9, (2R)-1-(6-(2-Furyl)-1H-purine-2-yl)-2-pyrrolidinemethanol] | 130.9 to 131.5 °C
28 | Cc1ccc(-c2nc(N)nc3c2ncn3Cc2ccccc2F)nc1 [Example 243, 9-(2-Fluorobenzyl)-6-(5-methyl-2-pyridinyl)-9H-purine-2-amine] | 299.8 °C
29 | Cc1ccsc1-c1nc(N)nc2[nH]cnc12 [Example 150, 6-(3-Methyl-2-thienyl)-1H-purine-2-amine] | 247 to 248 °C
30 | Nc1nc(-c2ccn[nH]2)c2ncn(Cc3ccccc3F)c2n1 [Example 262, 9-(2-Fluorobenzyl)-6-(1H-pyrazol-3-yl)-9H-purine-2-amine] | 257 to 259 °C
31 | Nc1nc(-c2ccco2)c2ncn(CC(=O)NCc3ccccc3F)c2n1 [Example 237, 2-Amino-N-(2-fluorobenzyl)-6-(2-furyl)-9H-purine9-acetamide] | 291.9 to 292.1 °C
32 | COc1cc(Cn2cnc3c(-c4ccco4)nc(N)nc32)cc(OC)c1 [Example 219, 9-(3,5-Dimethoxybenzyl)-6-(2-furyl)-9H-purine-2-amine] | 205.3 to 205.4 °C
33 | Clc1nc(-c2ccco2)c2nc[nH]c2n1 [Example 8, 2-Chloro-6-(2-furyl)-1H-purine] | > 303 °C (dec.)

Further lines, results first:

Row | melting point | Structure (SMILES)
34 | 190.4 to 190.5 °C | CC(C)(C)OC(=O)n1ccc2c(Cn3cnc4c(-c5ccco5)nc(N)nc43)cccc21 [Example 270, tert-butyl 4-(2-amino-6-(2-furyl)-1H-purine-9-ylmethyl)indole-1-carboxylate]
35 | 190 °C (dec.) | NCCn1cnc2c(-c3ccco3)nc(N)nc21 [Example 257, 9-(2-Aminoethyl)-6-(2-furyl)-9H-purine-2-amine]
36 | 112 to 113 °C | CSc1nc(-c2ccco2)c2ncn(C(=O)OC(C)(C)C)c2n1 [Example 12, tert-Butyl 6-(2-furyl)-2-methylthio-9H-purine-9carboxylate]
37 | 180.6 to 181.8 °C | CCOC(=O)Cn1cnc2c(-c3ccco3)nc(N(C)C)nc21 [Example 71, Ethyl 2-dimethylamino-6-(2-furyl)-9H-purine-9-acetate]
38 | 321.5 to 321.6 °C | NC(=O)Cn1cnc2c(-c3ccco3)nc(N)nc21 [Example 87, 2-Amino-6-(2-furyl)-9H-purine-9-acetamide]
39 | 247 to 252 °C | C[C@H](N)Cn1cnc2c(-c3ccco3)nc(N)nc21 [Example 251, (2S)-9-(2-Amino-1-propyl)-6-(2-furyl)-9H-purine-2-amine]
40 | > 300 °C (dec.) | CC(C)NC(=O)n1cnc2c(-c3ccco3)nc(N)nc21 [Example 30, 2-Amino-6-(2-furyl)N-isopropyl-9H-purine-9-carboxamide]
41 | > 270 °C (dec.) | CN1CCN(C(=O)Cn2cnc3c(-c4ccco4)nc(N)nc32)CC1 [Example 97, 6-(2-Furyl)-9-(2-oxo-2-(4-methyl-1-piperazinyl)ethyl)-9H-purine-2-amine]
42 | > 300 °C (dec.) | CC(=O)n1cnc2c(-c3ccco3)nc(N)nc21 [Example 34, 9-Acetyl-6-(2-furyl)-9H-purine-2-amine]
43 | > 300 °C (dec.) | Nc1nc(-c2ccco2)c2ncn(C(=O)Oc3ccccc3)c2n1 [Example 22, Phenyl 2-amino-6-(2-furyl)-9H-purine-9-carboxylate]
44 | > 280 °C (dec.) | CCNC(=O)n1cnc2c(-c3ccco3)nc(N)nc21 [Example 24, 2-Amino-N-ethyl-6-(2-furyl)-9H-purine-9-carboxamide]
45 | 276.4 to 276.9 °C | Nc1nc(-c2ccco2)c2ncn(CC(=O)NCc3ccco3)c2n1 [Example 218, 2-Amino-6-(2-furyl)-N-(2-furylmethyl)-9H-purine-9-acetamide]
46 | 282.4 to 282.6 °C | Cc1noc(C)c1Cn1cnc2c(-c3ccco3)nc(N)nc21 [Example 229, 9-(3,5-Dimethylisoxazol-4-ylmethyl)-6-(2-furyl)-9H-purine-2-amine]
47 | > 250 °C (dec.) | Nc1nc(-c2ccco2)c2ncn(CC(=O)NCCO)c2n1 [Example 96, 2-Amino-6-(2-furyl)-N-(2-hydroxyethyl)-9H-purine-9-acetamide]
48 | > 300 °C (dec.) | Nc1nc(-c2ccco2)c2ncn(C(=O)C3CCCCC3)c2n1 [Example 28, 9-Cyclohexylcarbonyl-6-(2-furyl)-9H-purine-2-amine]
49 | > 300 °C (dec.) | CC(C)COC(=O)n1cnc2c(-c3ccco3)nc(N)nc21 [Example 20, 2-Methylpropyl 2-amino-6-(2-furyl)-9H-purine-9-carboxylate]
50 | > 250 °C (dec.) | CC(C)(C)OC(=O)n1cnc2c(-c3cccs3)nc(N)nc21 [Example 78, tert-Butyl 2-amino-6-(2-thienyl)-9H-purine-9-carboxylate]
51 | 143.2 to 144.1 °C | CC(C)(C)OC(=O)n1cnc2c(-c3ccco3)nc(N)nc21 [Example 14, tert-Butyl 2-amino-6-(2-furyl)-9H-purine-9-carboxylate]
52 | 283.6 to 283.7 °C | Nc1nc(-c2ccco2)c2ncn(CC(=O)N3CCCC3)c2n1 [Example 88, 6-(2-Furyl)-9-(2-oxo-2-(1-pyrrolidinyl)ethyl)-9H-purine-2-amine]
